Test results from US20260138959A1, “QUINAZOLINE DERIVATIVE COMPOUND AND USE THEREOF” (VORONOI INC., priority 2021, published 2026).

How the values were obtained:
[1] = tested on: Ba/F3-TEL-PDGFβ(WT); assay: Proliferation inhibitory activity on Ba/F3 cell (CellTiter-Glo, 72 hours), PDGFR-β; format: cell-based; conditions: Mus musculus, BaF3, read-out: Ba/F3 (nM) Tel-PDGFRβ (GI50 class)
How it was run: (§1)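 3×10^3 Ba/F3 cells/well; cpd 0.00005-10 μM final, 3-fold × 12 pts, DMSO ctrl; 37 °C CO2, 72 h. CellTiter-Glo added, ~10 min RT, luminescence read. GI50 (nM) vs vehicle.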

[2] = target: T1, human c-KIT(wt) (Homo sapiens, UniProt P10721); assay: Enzyme inhibitory activity, ADP-Glo kinase assay, c-KIT(wt); format: biochemical; conditions: read-out: c-KIT (WT) (IC50 class)
T1 construct: purchased Signalchem K06-11BG
T1 sequence (P10721 26-976): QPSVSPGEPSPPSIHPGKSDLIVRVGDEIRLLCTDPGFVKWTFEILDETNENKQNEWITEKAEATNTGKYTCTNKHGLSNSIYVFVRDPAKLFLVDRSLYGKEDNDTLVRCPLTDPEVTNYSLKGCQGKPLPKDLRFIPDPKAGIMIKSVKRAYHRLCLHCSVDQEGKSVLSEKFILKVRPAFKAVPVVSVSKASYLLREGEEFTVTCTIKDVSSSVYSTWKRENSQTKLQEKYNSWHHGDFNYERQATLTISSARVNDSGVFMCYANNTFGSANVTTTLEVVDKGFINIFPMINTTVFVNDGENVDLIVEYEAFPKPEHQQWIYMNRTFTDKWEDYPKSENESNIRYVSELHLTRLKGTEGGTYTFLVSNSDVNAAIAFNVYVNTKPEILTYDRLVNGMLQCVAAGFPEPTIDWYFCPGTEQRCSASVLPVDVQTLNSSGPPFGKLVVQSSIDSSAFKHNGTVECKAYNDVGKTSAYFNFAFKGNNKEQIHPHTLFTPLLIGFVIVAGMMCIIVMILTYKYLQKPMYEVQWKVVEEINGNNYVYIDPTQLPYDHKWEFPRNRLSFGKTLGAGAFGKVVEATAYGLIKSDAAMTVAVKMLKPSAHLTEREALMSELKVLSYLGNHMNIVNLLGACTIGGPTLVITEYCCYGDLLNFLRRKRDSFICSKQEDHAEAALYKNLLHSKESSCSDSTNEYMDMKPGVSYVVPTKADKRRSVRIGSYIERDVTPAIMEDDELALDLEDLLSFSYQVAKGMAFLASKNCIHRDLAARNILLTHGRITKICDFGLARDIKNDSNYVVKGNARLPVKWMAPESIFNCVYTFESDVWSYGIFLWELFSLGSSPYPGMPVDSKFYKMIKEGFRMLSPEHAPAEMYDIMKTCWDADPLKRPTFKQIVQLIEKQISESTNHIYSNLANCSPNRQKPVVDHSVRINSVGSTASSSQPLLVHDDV
Description: (§2) In order to evaluate the inhibitory activity of the compounds synthesized according to the above examples on PDGFR-α(wt), PDGFR-β(wt), c-KIT(wt), and c-KIT(D816V) kinases, the following method was performed. The compounds of examples were reacted with purified human PDGFR-α(wt) (Signalchem #P12-18G) enzyme, human PDGFR-β(wt) (Signalchem #P13-11G) enzyme, human c-KIT(wt) (Signalchem #K06-11BG) enzyme, human c-KIT(D816V) (Signalchem #C06-12LG) enzyme, and the enzyme inhibitory abilities were evaluated by the following method.
(§3) The reaction buffer was used as a composition of 40 mM Tris-HCl pH7.4, 20 mM MgCl2, 0.5 mg/ml BSA, 50 μM DTT, and the reactions of all the tests were carried out on the reaction buffer. The compound was diluted in 12 steps using a serial dilution method from a 10 mM DMSO stock, and the enzyme activity was measured at a final compound concentration of 10˜0.00005645 μM. During the test, the enzyme activity was confirmed using in vitro ADP-Glo™ kinase assay (Promega) after reacting with the proper concentration of human PDGFR-α(wt) enzyme, human PDGFR-β(wt), human c-KIT(wt) enzyme, and human c-KIT(D816V) enzyme with purified ATP and enzyme substrate at 25° C. for 1˜2 hours. At a ratio of 2:2:1, an enzyme-active reaction solution, an ADP-Glo reaction solution, and an enzyme-active detection solution were reacted to measure the inhibition of the enzyme's activity with luminoscence. Based on the […] of the enzyme activity of the solvent control that was not treated with the compound, the degree of enzyme activity inhibition was calculated according to the treatment concentration of each compound, and the concentration of each compound that inhibits 50% of enzyme activity was determined as IC50 (nM) value and the value was obtained by using GraphPad Prism 8.3.0 (GraphPad software Inc., San Diego) software. (A: IC50≤50 nM; B: 50 nM<IC50≤100 nM; C: 100 nM<IC50≤500 nM; D: IC50>500 nM).

[3] = target: T2, human PDGFR-α(wt) (Homo sapiens, UniProt P16234); assay: Enzyme inhibitory activity, ADP-Glo kinase assay, PDGFR-α(wt); format: biochemical; conditions: read-out: PDGFR-α (IC50 class)
T2 construct: purchased Signalchem P12-18G
T2 sequence (P16234 24-1089): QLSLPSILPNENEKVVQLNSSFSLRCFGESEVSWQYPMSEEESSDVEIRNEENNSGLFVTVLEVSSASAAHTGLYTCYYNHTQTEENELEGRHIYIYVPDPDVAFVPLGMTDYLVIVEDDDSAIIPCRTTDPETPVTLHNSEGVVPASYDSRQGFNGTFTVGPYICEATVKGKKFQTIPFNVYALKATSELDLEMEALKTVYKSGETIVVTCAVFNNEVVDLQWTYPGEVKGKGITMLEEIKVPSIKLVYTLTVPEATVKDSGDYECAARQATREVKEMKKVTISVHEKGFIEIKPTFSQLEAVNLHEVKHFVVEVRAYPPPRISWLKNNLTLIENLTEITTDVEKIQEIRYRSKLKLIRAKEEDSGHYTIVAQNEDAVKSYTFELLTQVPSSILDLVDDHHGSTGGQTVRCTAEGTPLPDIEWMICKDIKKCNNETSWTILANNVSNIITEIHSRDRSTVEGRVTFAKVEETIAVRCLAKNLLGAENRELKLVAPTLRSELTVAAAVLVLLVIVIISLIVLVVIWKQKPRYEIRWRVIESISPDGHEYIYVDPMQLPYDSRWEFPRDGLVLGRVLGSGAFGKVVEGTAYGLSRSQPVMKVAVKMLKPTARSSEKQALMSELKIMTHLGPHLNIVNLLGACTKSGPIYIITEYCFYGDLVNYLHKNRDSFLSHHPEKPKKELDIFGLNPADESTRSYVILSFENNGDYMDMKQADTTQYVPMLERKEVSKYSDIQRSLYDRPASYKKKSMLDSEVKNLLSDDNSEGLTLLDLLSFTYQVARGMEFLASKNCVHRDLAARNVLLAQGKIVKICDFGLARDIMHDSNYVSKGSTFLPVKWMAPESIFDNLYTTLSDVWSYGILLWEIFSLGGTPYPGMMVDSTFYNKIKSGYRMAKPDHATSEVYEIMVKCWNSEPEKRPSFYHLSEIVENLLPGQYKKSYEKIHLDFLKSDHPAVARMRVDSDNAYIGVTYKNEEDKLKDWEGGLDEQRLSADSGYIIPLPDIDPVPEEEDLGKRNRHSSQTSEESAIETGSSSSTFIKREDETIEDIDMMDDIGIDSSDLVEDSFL
Description: as §2, §3

[4] = tested on: Ba/F3-c-KIT(D816V); assay: Proliferation inhibitory activity on Ba/F3 cell (CellTiter-Glo, 72 hours), c-KIT(D816V); format: cell-based; conditions: Mus musculus, BaF3, read-out: Ba/F3 (nM) c-KIT (D816V) (GI50 class)
How it was run: as §1

[5] = target: T3, human PDGFR-β(wt) (Homo sapiens, UniProt P09619); assay: Enzyme inhibitory activity, ADP-Glo kinase assay, PDGFR-β(wt); format: biochemical; conditions: read-out: PDGFR-β (IC50 class)
T3 construct: purchased Signalchem P13-11G
T3 sequence (P09619 33-1106): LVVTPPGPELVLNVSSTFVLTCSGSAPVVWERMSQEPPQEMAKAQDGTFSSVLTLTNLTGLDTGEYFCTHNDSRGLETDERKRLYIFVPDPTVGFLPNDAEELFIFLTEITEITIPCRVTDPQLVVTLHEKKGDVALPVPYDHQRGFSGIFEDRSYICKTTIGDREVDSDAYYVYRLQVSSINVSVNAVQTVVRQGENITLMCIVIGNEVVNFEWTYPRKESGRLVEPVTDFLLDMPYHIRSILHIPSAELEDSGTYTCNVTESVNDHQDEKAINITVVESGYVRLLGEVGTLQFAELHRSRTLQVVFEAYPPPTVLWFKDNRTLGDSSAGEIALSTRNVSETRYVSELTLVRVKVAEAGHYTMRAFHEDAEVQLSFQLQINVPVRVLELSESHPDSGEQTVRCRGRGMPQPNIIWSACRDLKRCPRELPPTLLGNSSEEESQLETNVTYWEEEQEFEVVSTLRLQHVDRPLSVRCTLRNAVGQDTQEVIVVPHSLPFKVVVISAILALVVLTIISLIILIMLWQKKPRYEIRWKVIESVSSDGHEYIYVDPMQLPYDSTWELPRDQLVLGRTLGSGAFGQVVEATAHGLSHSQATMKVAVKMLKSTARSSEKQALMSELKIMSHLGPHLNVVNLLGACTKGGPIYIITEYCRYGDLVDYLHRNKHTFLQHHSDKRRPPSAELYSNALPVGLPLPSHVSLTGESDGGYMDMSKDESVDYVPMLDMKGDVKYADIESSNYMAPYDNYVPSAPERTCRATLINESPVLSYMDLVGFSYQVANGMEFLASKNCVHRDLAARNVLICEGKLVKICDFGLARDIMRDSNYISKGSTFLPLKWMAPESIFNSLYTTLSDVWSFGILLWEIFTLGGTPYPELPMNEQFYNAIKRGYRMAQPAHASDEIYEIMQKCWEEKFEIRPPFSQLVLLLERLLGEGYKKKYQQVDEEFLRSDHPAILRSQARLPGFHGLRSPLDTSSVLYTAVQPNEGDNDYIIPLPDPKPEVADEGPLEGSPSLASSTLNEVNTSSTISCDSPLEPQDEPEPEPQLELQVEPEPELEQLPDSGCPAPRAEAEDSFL
How it was run: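 Purified human kinases incubated with ATP and substrate 1–2 h at 25 °C in 40 mM Tris-HCl pH 7.4, 20 mM MgCl2, BSA, DTT, compound over 12 concentrations (10–0.00005645 μM final). ADP formed quantified by ADP-Glo luminescence; IC50 from inhibition versus DMSO control, reported in bins A–D.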

[6] = tested on: c-KIT V560G/D816V; assay: Proliferation inhibitory activity on Ba/F3 cell (CellTiter-Glo, 72 hours), c-KIT V560G/D816V; format: cell-based; conditions: Mus musculus, BaF3, c-KIT V560G/D816V cells, read-out: Cell (nM) c-KIT V560G/D816V (GI50 class)
How it was run: as §1

[7] = tested on: Ba/F3-TEL-PDGFRα(WT); assay: Proliferation inhibitory activity on Ba/F3 cell (CellTiter-Glo, 72 hours), PDGFR-α; format: cell-based; conditions: Mus musculus, BaF3, read-out: Ba/F3 (nM) Tel-PDGFRα (GI50 class)
Description: (§4) Ba/F3-TEL-PDGFRα(WT), Ba/F3-TEL-PDGFβ(WT), Ba/F3-c-KIT(D816V) (Kyinno, #KC-0138), c-KIT V560G/D816V, c-KIT D814Y were seeded at 3×10^3/100 μl/well in a clear bottom white 96-well plate. A culture solution containing compounds of 12 concentrations (0.00001-2 mM) serially diluted in 3 folds and the DMSO control group was added at 0.5 μl/well each to a final concentration of 0.00005-10 μM, and then incubated in a CO2 incubator at 37° C. for 72 hours. After 72 hours, the plate treated with the compound was taken out, CellTiter-Glo® Assay (Promega) solution was treated with 100 μl/well, followed by mixing well. After mixing well for about 10 minutes at room temperature, […] was measured using a microplate reader. The data were presented as percentages in proportion to treated cells based on the vehicle, GI50 (nM) values were calculated using GraphPad Prism 8.3.0 (GraphPad software Inc., San Diego).
(§5) The inhibitory activities of Ba/F3 expressing PDGFR-α, PDGFR-β, c-KIT(D816V), c-KIT V560G/D816V, and c-KIT D814Y measured as described above were measured and shown in Table 7 below (A: GI50≤200 nM; B: 200 nM<GI50≤500 nM; C: GI50>500 nM).

[8] = target: c-KIT D816V (Homo sapiens, UniProt P10721, D816V); assay: Enzyme inhibitory activity, ADP-Glo kinase assay, c-KIT(D816V); format: biochemical; parameters: purchased Signalchem C06-12LG; conditions: read-out: c-KIT (D816V) (IC50 class)
c-KIT D816V, sequence (P10721 26-976 D816V): as the sequence (P10721 26-976) above, with D791V counted along it
Description: as §2, §3

[9] = tested on: c-KIT D814Y; assay: Proliferation inhibitory activity on Ba/F3 cell (CellTiter-Glo, 72 hours), c-KIT D814Y; format: cell-based; conditions: Mus musculus, BaF3, c-KIT D814Y cells, read-out: Cell (nM) c-KIT D814Y (GI50 class)
Description: as §4, §5

| Compound | GI50 [1] | IC50 [2] | IC50 [3] | GI50 [4] | IC50 [5] | GI50 [6] | GI50 [7] | IC50 [8] | GI50 [9] |
| --- | --- | --- | --- | --- | --- | --- | --- | --- | --- |
| COc1cc2c(-c3ccc(NC(=O)Cc4ccc(C(F)(F)F)cc4)cc3)ncnc2cc1OC1CCN(C)CC1 [Example 2, N-(4-(6-methoxy-7-((1-methylpiperidin-4-yl)oxy)quinazolin-4-yl)phenyl)-2-(4-(trifluoromethyl)phenyl)acetamide] | ≤ 200 nM | ≤ 0.05 µM | ≤ 0.05 µM | ≤ 200 nM | ≤ 0.05 µM | 200 to 500 nM | ≤ 200 nM | ≤ 0.05 µM | – |
| CCN1CCC(COc2cc3ncnc(-c4ccc(NC(=O)Cc5ccc(C(F)(F)F)cc5)cc4)c3cc2OC)CC1 [Example 4, N-(4-(7-((1-ethylpiperidin-4-yl)methoxy)-6-methoxyquinazolin-4-yl)phenyl)-2-(4-(trifluoromethyl)phenyl)acetamide] | ≤ 200 nM | – | – | ≤ 200 nM | ≤ 0.05 µM | ≤ 200 nM | – | – | ≤ 200 nM |
| COCCN1CCC(COc2cc3ncnc(-c4ccc(NC(=O)Cc5ccc(C(F)(F)F)cc5)cc4)c3cc2OC)CC1 [Example 43, N-(4-(6-methoxy-7-((1-(2-methoxyethyl)piperidin-4-yl)methoxy)quinazolin-4-yl)phenyl)-2-(4-(trifluoromethyl)phenyl)acetamide] | – | – | – | ≤ 200 nM | ≤ 0.05 µM | ≤ 200 nM | – | – | ≤ 200 nM |
| CCN(CC)CCOc1cc2c(-c3ccc(NC(=O)Cc4ccc(F)cc4)cc3)ncnc2cc1OC [Example 122, N-(4-(6-(2-(diethylamino)ethoxy)-7-methoxyquinazolin-4-yl)phenyl)-2-(4-fluorophenyl)acetamide] | ≤ 200 nM | ≤ 0.05 µM | ≤ 0.05 µM | – | 0.05 to 0.1 µM | – | ≤ 200 nM | ≤ 0.05 µM | – |
| COc1cc2ncnc(-c3ccc(NC(=O)Cc4ccc(C(F)(F)F)cc4)cc3)c2cc1OC1CCNCC1 [Example 140, N-(4-(7-methoxy-6-(piperidin-4-yloxy)quinazolin-4-yl)phenyl)-2-(4-(trifluoromethyl)phenyl)acetamide] | ≤ 200 nM | – | ≤ 0.05 µM | ≤ 200 nM | ≤ 0.05 µM | > 500 nM | ≤ 200 nM | – | > 500 nM |

Continued, values first:

| GI50 [1] | IC50 [2] | IC50 [3] | GI50 [4] | IC50 [5] | GI50 [6] | GI50 [7] | IC50 [8] | GI50 [9] | Compound |
| --- | --- | --- | --- | --- | --- | --- | --- | --- | --- |
| ≤ 200 nM | ≤ 0.05 µM | ≤ 0.05 µM | ≤ 200 nM | ≤ 0.05 µM | ≤ 200 nM | ≤ 200 nM | ≤ 0.05 µM | – | CCN(CC)CCOc1cc2ncnc(-c3ccc(NC(=O)Cc4ccc(C(F)(F)F)cc4)cc3)c2cc1OC [Example 1, N-(4-(7-(2-(diethylamino)ethoxy)-6-methoxyquinazolin-4-yl)phenyl)-2-(4-(trifluoromethyl)phenyl)acetamide] |
| ≤ 200 nM | ≤ 0.05 µM | ≤ 0.05 µM | ≤ 200 nM | ≤ 0.05 µM | ≤ 200 nM | ≤ 200 nM | ≤ 0.05 µM | ≤ 200 nM | CCN(CC)CCCOc1cc2ncnc(-c3ccc(NC(=O)Cc4ccc(C(F)(F)F)cc4)cc3)c2cc1OC [Example 11, N-(4-(7-(3-(diethylamino)propoxy)-6-methoxyquinazolin-4-yl)phenyl)-2-(4-(trifluoromethyl)phenyl)acetamide] |
| ≤ 200 nM | – | – | ≤ 200 nM | – | ≤ 200 nM | – | – | ≤ 200 nM | CCN1CCCC(COc2cc3ncnc(-c4ccc(NC(=O)Cc5ccc(C(F)(F)F)cc5)cc4)c3cc2OC)C1 (centres unmarked) [Example 18, N-(4-(7-((1-ethylpiperidin-3-yl)methoxy)-6-methoxyquinazolin-4-yl)phenyl)-2-(4-(trifluoromethyl)phenyl)acetamide] |
| – | – | – | ≤ 200 nM | ≤ 0.05 µM | ≤ 200 nM | – | – | ≤ 200 nM | COc1cc2c(-c3ccc(NC(=O)Cc4ccc(C(F)(F)F)cc4)cc3)ncnc2cc1OCCn1cccn1 [Example 30, N-(4-(7-(2-(1H-pyrazol-1-yl)ethoxy)-6-methoxyquinazolin-4-yl)phenyl)-2-(4-(trifluoromethyl)phenyl)acetamide] |
| – | – | – | ≤ 200 nM | ≤ 0.05 µM | ≤ 200 nM | – | – | ≤ 200 nM | COc1cc2c(-c3ccc(NC(=O)Cc4ccc(C(F)(F)F)cc4)cc3)ncnc2cc1OCCCN1C[C@H]2C[C@@H]1CN2C [Example 31, N-(4-(6-methoxy-7-(3-((1R,4R)-5-methyl-2,5-diazabicyclo[2.2.1]heptane-2-yl)propoxy)quinazolin-4-yl)phenyl)-2-(4-(trifluoromethyl)phenyl)acetamide] |
| – | – | – | ≤ 200 nM | ≤ 0.05 µM | ≤ 200 nM | – | – | ≤ 200 nM | CCN1CC[C@@H](COc2cc3ncnc(-c4ccc(NC(=O)Cc5ccc(C(F)(F)F)cc5)cc4)c3cc2OC)C1 [Example 40, (R)-N-(4-(7-((1-ethylpyrrolidin-3-yl)methoxy)-6-methoxyquinazolin-4-yl)phenyl)-2-(4-(trifluoromethyl)phenyl)acetamide] |
| ≤ 200 nM | ≤ 0.05 µM | ≤ 0.05 µM | – | ≤ 0.05 µM | ≤ 200 nM | ≤ 200 nM | ≤ 0.05 µM | – | COCCOc1cc2ncnc(-c3ccc(NC(=O)Cc4ccc(C(F)(F)F)cc4)cc3)c2cc1OCCOC [Example 57, N-(4-(6,7-bis(2-methoxyethoxy)quinazolin-4-yl)phenyl)-2-(4-(trifluoromethyl)phenyl)acetamide] |
| – | – | – | ≤ 200 nM | ≤ 0.05 µM | 200 to 500 nM | – | – | 200 to 500 nM | COc1cc2ncnc(-c3ccc(NC(=O)Cc4ccc(C(F)(F)F)cc4)cc3)c2cc1OCCN1CCN(C)CC1 [Example 131, N-(4-(7-methoxy-6-(2-(4-methylpiperazin-1-yl)ethoxy)quinazolin-4-yl)phenyl)-2-(4-(trifluoromethyl)phenyl)acetamide] |
